Here are results for 1 molecule from patent US20070003976A1, “Car ligand-binding domain polypeptide co-crystallized with a ligand, and methods of designing ligands that modulate car activity” (SMITHKLINE BEECHAM CORPORATION, priority 2003, published 2007).

Molecules are shown by their SMILES.

This assay addresses T1, human CAR LBD protein (Homo sapiens, UniProt Q14994).
T1 construct: made in house; host or cells: E. coli BL21 (DE3), pRSETA vector
T1 sequence (Q14994 103-348 isoform Q14994-2): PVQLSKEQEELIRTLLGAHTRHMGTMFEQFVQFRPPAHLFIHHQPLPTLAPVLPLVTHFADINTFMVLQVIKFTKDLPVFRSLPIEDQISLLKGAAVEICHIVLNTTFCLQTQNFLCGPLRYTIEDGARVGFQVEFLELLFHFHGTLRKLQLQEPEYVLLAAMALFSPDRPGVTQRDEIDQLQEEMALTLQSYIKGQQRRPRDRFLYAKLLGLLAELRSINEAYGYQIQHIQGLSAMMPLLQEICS
Briefly: Fluorescence Resonance Energy Transfer (FRET) Ligand Sensing Assay: CAR LBD / SRC-1 coactivator peptide interaction. The format is biochemical. The protocol:
Screening of synthetic compound libraries with the purified CAR LBD protein by a Fluorescence Resonance Energy Transfer (FRET) Ligand Sensing Assay (Parks et al., 1999) was conducted to identify molecules that alter the basal interaction between a coactivator peptide and the CAR LBD protein. Briefly, the purified human CAR LBD protein was biotinylated and labeled with streptavidin-conjugated fluorophore allophycocyanin. The labeled CAR LBD protein was incubated with a test compound and with a peptide that included the second LXXLL binding motif of the nuclear coactivator SRC-1 (GenBank Accession No. U59302; amino acids 676-700) that was labeled with europium chelate. Data were collected with a WALLAC VICTOR™ fluorescence reader (available from PerkinElmer Life Sciences Inc., Boston, Mass., United States of America) in a time resolved mode and the fluorescence ratio calculated.

As for `NC(=O)c1ccc2nc(NC(c3ccccc3)c3ccccc3)n(CCc3ccccc3)c2c1` [Compound 1, 2-(benzhydrylamino)-1-(2-phenylethyl)-1H-benzimidazole-6-carboxamide], the midpoint of the response (dose response curves with purified CAR LBD protein, reduction of basal CAR LBD/SRC-1 peptide FRET signal (inverse agonist)), the EC50, lay at 15 nM. For the same molecule, the “effect on basal fluorescent signal (CAR LBD/SRC-1 interaction)” value (screen of synthetic compound libraries, time resolved fluorescence ratio) is “inverse agonist molecule that reduces the basal fluorescent signal”.
